Entries after “also recorded” stand apart in the source; their conditions may differ. Read-outs that look alike come from different tables or passages of the source. Ends that are not written are not given here.
Key:
[1] = system: NOD mice with spontaneous diabetes; experiment: Therapy regimen of LSF and INGAP in spontaneously diabetic NOD mice maintained on insulin pellets; assay type: in vivo; conditions: for blood glucose levels (non-fasting) at the end of treatments: FIG. 3, diabetic NOD mice, LSF 27 mg/kg/day continuous sc infusion, INGAP 500 μg qd ip; for remission rate of diabetes: FIG. 5, diabetic NOD mice observed after all therapy stopped
Description: The following example illustrates a therapy regimen (FIG. 1) involving INGAP peptide and LSF for building and preserving β-cell mass and increasing insulin production in a mammal. NOD mice were monitored for diabetes by measuring blood glucose levels. Mice were allowed to develop spontaneous diabetes, which usually occurs around the age of 18 weeks. Non-fasting blood glucose levels >250 mg/dL measured for 3 different days was considered evidence of diabetes onset. Shortly after diagnosing diabetes, the NOD mice received an insulin pellet implanted subcutaneously in order to maintain them during the treatment period of 6 to 7 weeks. The pellet provides 0.1 U/d of bovine insulin. The mice were then assigned to one of 5 treatment groups: Group 1—Normal saline via continuous subcutaneous infusion (placebo). The saline was delivered via an implantable subcutaneous osmotic mini-pump. The mice received the placebo for 4 weeks and continued on insulin for another 2 weeks. The insulin was then stopped, and the mice observed to determine if the treatment was effective. Group 2—LSF (27 mg/kg/day via continuous subcutaneous infusion) alone. The LSF was delivered via an implantable subcutaneous osmotic mini-pump. The mice received LSF for 4 weeks, continued on insulin for another 2 weeks, and then observed to determine if the treatment was effective. Group 3—INGAP (500 μg qd ip) alone. The mice received INGAP and insulin for 6 weeks, the treatment was then stopped, and the mice observed to determine if the treatment was effective. Group 4—LSF (27 mg/kg/day via continuous subcutaneous infusion) plus INGAP (500 μg qd ip) administered concomitantly. The LSF was delivered via an implantable subcutaneous osmotic mini-pump. The mice received LSF for 4 weeks and INGAP and insulin for 6 weeks. The treatments were then stopped and the mice observed to determine if the treatment was effective. Group 5—LSF (27 mg/kg/day via continuous subcutaneous infusion) for a week of pretreatment as monotherapy. Here the immune system was first treated to ‘cool it off’ so that any new islets would be growing in a less hostile environment. INGAP was then added to the treatment regimen (at 500 μg qd ip) and administered concomitantly with the LSF for an additional 5 weeks. LSF treatment was discontinued at week 6. INGAP and Insulin were continued for 1 more week until week 7. All therapy was then discontinued and the mice observed to determine if the treatment was effective. See treatment timeline depicted in FIG. 2.

[2] = system: non-obese diabetic (NOD) mice; conditions: LSF alone, when hyperglycemia became detectable; cited from earlier work
[3] = cited from earlier work
[4] = system: streptozotocin-induced diabetic mice; conditions: cited from earlier work

Compound | blood glucose levels (non-fasting) at the end of treatments [1] | remission rate of diabetes [1] | reversal of autoimmune diabetes [2] | safety in clinical studies ([3]; clinical studies, open IND on file with FDA) | effect on islet formation and glycemia [4] | insulin production of treated animals ([1]; FIG. 15) | safety in clinical studies ([3]; in vivo)
C[C@@H](O)CCCCn1c(=O)c2c(ncn2C)n(C)c1=O [LSF, 1-(5-R-hydroxyhexyl)-3,7-dimethylxanthine] | little or no effect | no remission; also recorded: No mice | did not reverse | safe | – | – | –
IGLHDPSHGTLPNGS [INGAP] | little or no effect | 10% | – | – | restore euglycemia | producing insulin | safe

From US20100331248A1, “COMPOSITIONS AND METHODS FOR TREATING DIABETES USING LISOFYLLINE AND ISLET NEOGENESIS ASSOCIATED PEPTIDE” (DIAKINE THERAPEUTICS, INC., priority 2008, published 2010)
